Columns and labels:
HeLa = test system: HeLa; design: method as in PMID 20183309, PMID 26757019, doi:10.1016/j.tetlet.2007.10.133, PMID 19431012; conditions: Figure 1; cited from earlier work
HL60 = test system: HL60; design: method as in PMID 20183309, PMID 26757019, doi:10.1016/j.tetlet.2007.10.133, PMID 19431012; conditions: Figure 1; cited from earlier work
A549 = test system: A549; design: method as in PMID 20183309, PMID 26757019, doi:10.1016/j.tetlet.2007.10.133, PMID 19431012; conditions: Figure 1; cited from earlier work
MCF-7 = test system: MCF-7; design: method as in PMID 20183309, PMID 26757019, doi:10.1016/j.tetlet.2007.10.133, PMID 19431012; conditions: Figure 1; cited from earlier work
HepG2 cells = assay: MTT anti-proliferative assay, HepG2; assay type: cell-based, human; conditions: Homo sapiens, HepG2; MTT, 48 h; means ± SD of three experiments
Description: (§1) A series of novel enmein-type diterpenoid derivatives, 5a–m, were synthesized by introducing a side chain containing a carbamate moiety at the C-6 position of compound 4. The anticancer activities of 5a–m were tested against three human cancer cell lines and one human normal cell line by MTT assay.
(§2) Human non-small cell lung cancer cell lines (A549), human liver cancer cell lines (HepG2), human breast cancer cell lines (MCF-7), and human normal cell lines (L-02) were purchased from the cell bank of the Chinese Academy of Sciences. All cells were placed in RPMI-1640 medium (added 10% fetal bovine serum, […]) and cultured in an aseptic environment with 5% CO2 at 37 °C.
(§3) All derivatives were evaluated for their anti-proliferative activities against three cancer cell lines and one normal cell line by MTT assay. The cells in the logarithmic growth phase were inoculated into 96-well plates (3 × 10^3 cells/well) and incubated for 48 h in a sterile environment with 5% CO2 at 37 °C to make them attach via cell adhesion; then, the cells were co-incubated with target compounds for 48 h. After that, MTT solution (10 µL/well) was added to the cell culture medium to continue incubation for 4 h, following which the medium was replaced with DMSO (150 µL/well). The absorbance values at 490 nm were determined using an enzyme meter (Safire 2, Tecan, Männedorf, Switzerland) and further converted to half-inhibitory concentration values of these compounds.

MCF-7 cells = assay: MTT anti-proliferative assay, MCF-7; assay type: cell-based; conditions: Homo sapiens, MCF7, 48 h, means ± SD of three experiments
Description: as §1, §2, §3

A549 cells = assay: MTT anti-proliferative assay, A549; assay type: cell-based, human; conditions: Homo sapiens, A549; MTT, 48 h; means ± SD of three experiments
Description: as §1, §2, §3

L-02 cells = assay: MTT anti-proliferative assay, normal L-02 cells; assay type: cell-based; conditions: Homo sapiens, L02, 48 h, means ± SD of three experiments
Description: as §1, §2, §3

Compound | IC50 (HeLa) [µM] | IC50 (HL60) [µM] | IC50 (A549) [µM] | IC50 (MCF-7) [µM] | IC50 (HepG2 cells) [µM] | IC50 (MCF-7 cells) [µM] | IC50 (A549 cells) [µM] | IC50 (L-02 cells) [µM]
C=C1C(=O)C23CC1CCC2C12COC(O)C1C(C)(C)CCC2OC3=O (centres unmarked) [Isodocarpin] | 4.01 | 0.57 |  |  |  |  |  | 
C=C1C(=O)[C@]23C[C@H]1C[C@H](O)C2[C@@]12CO[C@@H](OC)C1C(C)(C)CC[C@@H]2OC3=O (some centres unmarked) [Rabdosin A] |  | 2.11 | 3.53 | 2.82 |  |  |  | 
CC(=O)O[C@H]1C(=O)[C@@]2(C)[C@H]([C@H](OC(=O)c3ccccc3)[C@]3(O)C[C@H](OC(=O)[C@H](O)[C@@H](NC(=O)c4ccccc4)c4ccccc4)C(C)=C1C3(C)C)[C@]1(OC(C)=O)CO[C@@H]1C[C@@H]2O [Taxol, reference compound] |  |  |  |  | 6.6 ± 1.61 | 5.15 ± 0.8 | 4.21 ± 0.73 | 8.31 ± 1.82
C=C1C(=O)C23C(=O)OC45CCC(C)(C)C6C(OC(=O)CCC(=O)NCc7ccc(C(C)(C)C)cc7)OCC64C2CCC1C3O5 (single isomer, unassigned; ent-6) [Compound 7d, ent-6β,14α-Dihydroxy-(1,7–1,14)-epoxy-7,15-dioxo-6,20-hemiketal-6,7-seco-16-kaurene-6β-yl 4-((4-(tert-butyl)benz-yl)amino)-4-oxobutanoate] |  |  |  |  | 11.5 ± 1.58 | 7.64 ± 2.52 | 6.41 ± 1.9 | 35.7 ± 2.66
C=C1C(=O)[C@]23[C@H](O)[C@H]1CC[C@H]2[C@@]12CO[C@]3(O)[C@@H](O)[C@@H]1C(C)(C)CC[C@@H]2O [Oridonin, reference compound] |  |  |  |  | 22.6 ± 1.2 | 18.5 ± 1.37 | 21.1 ± 1.58 | 23.6 ± 1.65
